Assay results taken from patent publication US20230104074A1, “BORTEZOMIB COMPOSITIONS” (MAIA Pharmaceuticals, Inc., priority 2021, published 2023).

What was measured:
[1] = Formulation attempts at 2.5 mg/mL with low concentrations of benzyl alcohol and other non-aqueous solvents; assay type: physicochemical
Procedure: Initial formulation experiments with low concentrations of various non-aqueous solvents were conducted targeting a bortezomib concentration of 2.5 mg/mL. Attempts to solubilize bortezomib were conducted using low concentrations of benzyl alcohol (2% v/v), or dimethyl sulfoxide (5% v/v), or a combination of these solvents. […] For these formulations, the non-aqueous solvent was added to bortezomib to dissolve it, followed by addition of water to the bortezomib-solvent mixture.

[2] = DMSO in water formulations: dissolution, physical stability, effect of pH on chemical stability; assay type: physicochemical; details: 1 mg/mL, 1% (v/v) DMSO in water, pH 5.5
Procedure: Various concentrations of DMSO were explored as the non-aqueous component of the formulation (2% v/v to 5% v/v in water). Bortezomib was first completely dissolved in the batch volume of DMSO to form a concentrated “premix” solution prior to making up the batch to the target concentration (2.5 mg/mL) with water. This was done to facilitate the subsequent dissolution of bortezomib in the aqueous component. The pH values of the formulations were all approximately 7.
The effect of pH on bortezomib formulations using a low concentration of DMSO in water (4.5% v/v DMSO for the 2.5 mg/mL strength and 1% v/v DMSO for the 1 mg/mL strength) was then assessed. In each case, the bortezomib was first fully dissolved in the batch quantity of DMSO to form a concentrated premix solution, which was then added to water, and the pH adjusted with sodium hydroxide and/or hydrochloric acid to pH ranging from 4 to 8.5. […] Because oxidative degradation is a significant degradation pathway for bortezomib, filled vials were overlayed with nitrogen. These batches were placed on stability at accelerated (25° C.) and long-term storage conditions (2-8° C.). […]

CC(C)C[C@H](NC(=O)[C@H](Cc1ccccc1)NC(=O)c1cnccn1)B(O)O [Bortezomib, [(1R)-3-methyl-1-[[(2S)-1-oxo-3-phenyl-2-[(pyrazinylcarbonyl)amino]propyl]amino]butyl] boronic acid]
Appearance on heating the solution ([1]; heating up to 70° C., precipitated bortezomib not dissolved): a pink color formed indicating degradation of the active | Dissolution on addition of water to bortezomib-solvent mixture ([1]; target 2.5 mg/mL, benzyl alcohol (2% v/v), DMSO (5% v/v) or combination, mixing >3 hours): precipitated after addition of water | Total Impurities after 2 months at 25° C. (%) [2]: 0.52%
